Measured values published in patent US20040166062A1, “Ablation therapy using chemical shift magnetic resonance imaging” (priority 2003, published 2004).

Columns and labels:
[1] = system: hepatocellular carcinoma less than about 3 cm; details: randomized, controlled trial, patients with hepatocellular carcinoma less than about 3 cm; cited from earlier work
calf liver = calf liver ex vivo, 8 cc glacial acetic acid injected by hand over 2 minutes
Source text: An MRI-compatible, 10 cm, 22-gauge needle was inserted into a calf liver that was placed in a transmit/receive birdcage coil. […] The offset frequency of the chemical saturation pulse was set at 170 Hz. […] A complete 3D data set was acquired every 15 seconds. Scanning parameters were: 20 degree flip angle, TE=4.2 msec, TR=34 msec, matrix=256×128×4, 1 signal average, and 32 kHz receiver bandwidth. A total of 15 temporal phases was acquired, each with approximately 15 second time resolution.
The time after injection appears in seconds in the lower left corner of each frame.

[2] = system: unresectable hepatocellular carcinoma
Experimental: After obtaining standard T1 and T2-weighted imaging, an MR-compatible 10 cm long, 22-gauge needle was advanced into the lesions. Baseline imaging was performed using a water-suppressed two-dimensional spoiled gradient-echo pulse sequence. […] The scanning parameters were: 30 degree flip angle, TE=4.2 msec, TR=34 msec, 34-38 cm field-of-view, ±16 kHz receiver bandwidth, 256×128 matrix, and 7 mm slice thickness.

renal tumor = system: renal tumor
Source text: (§1) An MR-compatible needle is advanced into the lesions to introduce the ablation agent.

breast tumor = system: breast tumor
Source text: as §1

lung tumor = system: lung tumor
Source text: as §1

prostate tumor = system: prostate tumor
Source text: as §1

multifocal hepatoma = details: Patient 3, post-injection, signal low in intensity
hepatic tumor = test: Paper example: CS-MRI guided chemical ablation of a hepatic tumor; details: for outcome of chemical ablation therapy: hepatic tumor, slow injection under CS-MRI
Experimental: as §1
A patient presents for ethanol ablation therapy of a hepatic tumor. The patient is prepared by placement on the MRI scanner platform and the spectrometer is calibrated for ^13C-labeled ethanol using standard T1 and T2-weighted imaging. An MR-compatible needle is advanced into the lesions to introduce the ablation agent. Dynamic two-dimensional, chemical shift MRI is performed during the slow injection of ^13C-labeled ethanol. The distribution of ^13C-labeled ethanol is then directly visualized using chemical shift MRI.
A patient presents for hot saline ablation therapy of a hepatic tumor. The patient is prepared by placement on the MRI scanner platform and the spectrometer is calibrated for ^23Na-labeled saline using standard T1 and T2-weighted imaging. An MR-compatible needle is advanced into the lesions to introduce the ablation agent. Dynamic two-dimensional, chemical shift MRI is performed during the slow injection of ^23Na-labeled saline. The distribution of ^23Na-labeled saline is then directly visualized using chemical shift MRI.

## CC(=O)O [acetic acid]
[1]
  effectiveness of ablation compared with ethanol ablation: more effective than ethanol ablation
Calf liver
  distribution of the agent at the injection site on CS-MRI: focal accumulation of acetic acid adjacent to the needle tip
[2]; Patient 2
  size of the lesion versus distribution of the agent: closely matches
[2]; in vivo
  extra-hepatic extravasation of the agent: No extra-hepatic extravasation of the agent is observed
Renal tumor
  outcome of chemical ablation therapy: successful in destroying the tumor
Breast tumor
  outcome of chemical ablation therapy: successful in destroying the tumor
Lung tumor
  outcome of chemical ablation therapy: successful in destroying the tumor
Prostate tumor
  outcome of chemical ablation therapy: successful in destroying the tumor

## CCO [ethanol]
Multifocal hepatoma
  distribution of the agent on CS-MRI: focal signal accumulation due to ethanol injection is observed

## ^13C-labeled acetic acid
Hepatic tumor
  outcome of chemical ablation therapy: successful in destroying the tumor

## ^13C-labeled ethanol
Hepatic tumor
  outcome of chemical ablation therapy: successful in destroying the tumor
Hepatic tumor; in vivo
  damage to surrounding tissues: without damage to surrounding tissues
